The record followed here is paper PMC10976043, “Function and Mechanism of Antiviral Wasp Venom Peptide Protopolybia-MP III and Its Derivatives against HSV-1” (Toxins, 2024).

Where two headings read alike, the source gives them in different places. Ends that are not written are not given here.

The test system of one assay is HSV-1. Format: cell-based, herpes simplex virus type 1. To be noted: for effect on intracellular HSV-1 RNA: different concentrations, HSV-1 MOI 1, 24 h, qPCR. The method, then: (A) Amino acid sequence of Protopolybia-MP III. Basic residues are labeled blue, and acidic residues are labeled red. (B,C) Suppression of intracellular HSV-1 infection by Protopolybia-MP III. Cells were preincubated with Protopolybia-MP III at different concentrations or PBS for 1 h and then infected with HSV-1 at a multiplicity of infection (MOI) of 1. After 24 h, the cells were collected. Intracellular HSV-1 RNA was analyzed by qPCR (B), and intracellular HSV-1 ICP0 protein levels were analyzed by Western blotting (C). (D) Suppression of Protopolybia-MP III on extracellular HSV-1 particles. Cells were treated with Protopolybia-MP III at different concentrations or PBS for 24 h, and then the supernatant was collected and evaluated in a plaque formation assay. (E) Cytotoxicity of Protopolybia-MP III to Vero cells. Cells were treated with Protopolybia-MP III or PBS at different concentrations for 24 h, and then the cytotoxicity was determined by CCK8 assay. * p < 0.05. ** p < 0.01. *** p < 0.001.
Figure 2 Protopolybia-MP III inhibits HSV-1 replication in human cell lines. (A) Cytotoxicities of Protopolybia-MP III to A549 cells, HCEC, and SK-N-MC. Cells were treated with Protopolybia-MP III at different concentrations or PBS for 24 h, and then cytotoxicities were determined by the CCK8 assay. (B,C) Suppression of intracellular HSV-1 infection by Protopolybia-MP III in A549 cells, HCEC, and SK-N-MC. Cells were preincubated with Protopolybia-MP III at different concentrations or PBS for 1 h and then infected with HSV-1 at an MOI of 1. After 24 h, the cells were collected. Intracellular HSV-1 RNA was analyzed by qPCR (B), and intracellular HSV-1 ICP0 protein expression levels were analyzed by Western blotting (C). (D) Inhibition of Protopolybia-MP III on extracellular HSV-1 particles in A549 cells, HCEC, and SK-N-MC. Cells were treated with Protopolybia-MP III at different concentrations or PBS for 24 h, and then the supernatant was collected and evaluated in a plaque formation assay. * p < 0.05. ** p < 0.01. *** p < 0.001.
HSV-1 was kindly provided by Professor Zhijian Cao of Wuhan University. Cells were infected with HSV-1 at an MOI of 1 for 24 h. Then, cells were collected for qPCR, Western blotting, and immunofluorescence assays, and the extracellular supernatant was used for plaque formation assays.
(§1) Cells were collected and lysed using TRIzol reagent (Beyotime Biotechnology, Shanghai, China) to release the intracellular total RNA, followed by precipitation with isopropanol. The first-strand cDNA was reverse-transcribed by the HiScript III 1st Strand cDNA Synthesis Kit (+gDNA wiper) (Vazyme, Nanjing, China). The cDNA was quantitated by qPCR with primers using Taq Pro Universal SYBR qPCR Master Mix (Vazyme). The HSV-1 primers were 5′-[…]-3′ (sense) and 5′-[…]-3′ (antisense). The monkey GAPDH primers were 5′-[…]-3′ (sense) and 5′-[…]-3′ (antisense). The human GAPDH primers were 5′-[…]-3′ (sense) and 5′-[…]-3′ (antisense). qPCR experiments were performed on a Bio-Rad CFX96 Touch (Pleasanton, CA, USA) according to the manufacturer’s instructions.
In general terms: Real-time PCR tracks product formation cycle by cycle.

For another assay, the system named is HSV-1 virion. Kind of assay: HSV-1 free virion infectivity assay, qPCR. Format: cell-based, herpes simplex virus type 1. To be noted: then Vero cells infected, 24 h. The protocol: Figure 5 Protopolybia-MP III destroys the integrity of HSV-1 free virions. (A) Schematic diagram for studying the effect of Protopolybia-MP III on HSV-1 free virion infectivity. (B) Effects of Protopolybia-MP III on HSV-1 free virion infectivity at different temperatures. HSV-1 (MOI = 1) and 20 μg/mL Protopolybia-MP III or PBS were coincubated at 4 °C, 22 °C, and 37 °C for 1 h, and then Vero cells were infected as described in (A). After 24 h, cells were collected, and intracellular HSV-1 RNA was analyzed by qPCR. (C) Effects of different concentrations of Protopolybia-MP III on HSV-1 free virion infectivity. HSV-1 (MOI = 1) and 1 or 10 μg/mL Protopolybia-MP III or PBS were coincubated at 37 °C for 1 h, and then Vero cells were infected as described in (A). After 24 h, cells were collected, and intracellular HSV-1 RNA was analyzed by qPCR. (D,E) The effect of Protopolybia-MP III on HSV-1 free virion integrity. HSV-1 and 20 μg/mL Protopolybia-MP III or PBS were coincubated at 37 °C for 1 h. Then, after centrifuging for 2 h at 40,000 rpm at 4 °C, the contents of HSV-1 gB in the supernatant and precipitate were detected by Western blotting (D). In addition, the structure of HSV-1 virions after incubation with Protopolybia-MP III was observed by electron microscopy. The red arrow points to a destroyed HSV-1 virion. *** p < 0.001.
Figure 7 Antiviral activity analysis of Protopolybia-MP III mutants. (A) Amino acid sequences of Protopolybia-MP III mutants. Identical amino acids among Protopolybia-MP I, Protopolybia-MP III, and its mutants are marked in blue, and different amino acids are marked in red. (B) Suppression of Protopolybia-MP I, Protopolybia-MP III, and its mutants on intracellular HSV-1 content. Cells were preincubated with 20 μg/mL peptides or PBS for 1 h and then infected with HSV-1 at an MOI of 1. After 24 h, the cells were collected. Intracellular HSV-1 ICP0 protein levels were analyzed by Western blotting. The ratios of HSV-1 ICP0 to GAPDH were calculated by ImageJ software. (C) Inhibition of HSV-1 free virion infectivity by Protopolybia-MP I, Protopolybia-MP III, and its mutants. HSV-1 (MOI = 1) and 5 μg/mL peptides or PBS were coincubated at 37 °C for 1 h, and the mixtures were then used to infect Vero cells. After 24 h, cells were collected, and intracellular HSV-1 RNA was analyzed by qPCR. ns, no significance. * p < 0.05. ** p < 0.01. *** p < 0.001.
as §1

Turning to “INWLKLGKAVIDAL-NH2 [Protopolybia-MP III]”, the “50% inhibitory concentration (IC50) against HSV-1 RNA” value in the assay with HSV-1 (1 h) came out at 5.132 ± 1.054 µg/mL. In addition, the “inhibition rate on intracellular HSV-1 RNA” value with HSV-1 (1 h, 5 μg/mL) is recorded as 50%; in the assay with HSV-1 (1 h, 10 μg/mL), 73%; with HSV-1 (1 h, 20 μg/mL), 94%. For the same substance, the “effect on intracellular HSV-1 RNA” value in the assay on HSV-1 (A549 cells), with HSV-1 (HCEC) and in the assay on HSV-1 (SK-N-MC) was “suppressed HSV-1 RNA” in each case. For the same substance, the HSV-1 virions inactivated was found to be 51% in the assay on HSV-1 virion (1 μg/mL coincubated with HSV-1 (MOI 1) at 37 °C for 1 h) and 99% in the assay with HSV-1 virion (10 μg/mL coincubated with HSV-1 (MOI 1) at 37 °C for 1 h). The “inhibition rate of HSV-1 virion infectivity” value in the assay with HSV-1 virion (20 μg/mL coincubated with HSV-1 (MOI 1) at 4 °C for 1 h), with HSV-1 virion (20 μg/mL coincubated with HSV-1 (MOI 1) at 22 °C for 1 h) and with HSV-1 virion (20 μg/mL coincubated with HSV-1 (MOI 1) at 37 °C for 1 h) was “above 99%” in each case. Moreover, the “inhibition rate of HSV-1 free virion infectivity” value with HSV-1 virion (mutant comparison (Figure 7C): 5 μg/mL coincubated with HSV-1 (MOI 1) at 37 °C for 1 h) turned out to be 97.3%.
